One assay deals with blackgrass. The assay is described as follows: Test D preemergence. Type of assay: in vivo, Alopecurus myosuroides. Particulars: Alopecurus myosuroides, pre-emergence; for pest or weed control at 31 g/ha: 31 g ai/ha; for pest or weed control at 62 g/ha: 62 g ai/ha; for pest or weed control at 125 g/ha: 125 g ai/ha. The text has this:
(§1) Seeds of plant species selected from bluegrass (annual bluegrass, Poa annua), blackgrass (Alopecurus myosuroides), canarygrass (littleseed canarygrass, Phalaris minor), chickweed (common chickweed, Stellaria media), galium (catchweed bedstraw, Galium aparine), bromegrass, downy (downy bromegrass, Bromus tectorum), field poppy (Papaver rhoeas), field violet (Viola arvensis), green foxtail (Setaria viridis), deadnettle (henbit deadnettle, Lamium amplexicaule), Italian ryegrass (Lolium multiflorum), kochia (Kochia scoparia), lambsquarters (Chenopodium album), oilseed rape (Brassica napus), pigweed (Amaranthus retroflexus), chamomile (scentless chamomile, Matricaria inodora), Russian thistle (Salsola kali), speedwell (bird's-eye speedwell, Veronica persica), spring barley (Hordeum vulgare), spring wheat (Triticum aestivum), wild buckwheat (Polygonum convolvulus), wild mustard (Sinapis arvensis), wild oat (Avena fatua), wild radish (Raphanus raphanistrum), windgrass (Apera spica-venti), winter barley (Hordeum vulgare), and winter wheat (Triticum aestivum) were planted into a silt loam soil and treated preemergence with test chemicals formulated in a non-phytotoxic solvent mixture which included a surfactant.
(§2) At the same time, these species were planted in pots containing Redi-Earth® planting medium (Scotts Company, 14111 Scottslawn Road, Marysville, Ohio 43041) comprising spaghnum peat moss, vermiculite, wetting agent and starter nutrients and treated with postemergence applications of the test chemicals formulated in the same manner. Plants ranged in height from 2 to 18 cm (1- to 4-leaf stage). Treated plants and controls were maintained in a controlled growth environment for 7 to 21 days after which time all species were compared to controls and visually evaluated. Plant response ratings, summarized in Table D, are based on a scale of 0 to 100 where 0 is no effect and 100 is complete control. A dash (-) response means no test result.

Another assay deals with galium. The assay is described as follows: Test D postemergence. The class given is in vivo, Galium aparine. Particulars: Galium, post-emergence; for pest or weed control at 31 g/ha: 31 g ai/ha; for pest or weed control at 62 g/ha: 62 g ai/ha; for pest or weed control at 125 g/ha: 125 g ai/ha.
From the text: as §1, §2

The next assay relates to canarygrass. Kind of assay: Test D postemergence. Type of assay: in vivo, Phalaris minor. The settings on record: Phalaris minor, post-emergence; for pest or weed control at 31 g/ha: 31 g ai/ha; for pest or weed control at 62 g/ha: 62 g ai/ha; for pest or weed control at 125 g/ha: 125 g ai/ha.
From the text: as §1, §2

A further assay has as its system bromegrass, downy. The assay is described as follows: Test D preemergence. Type of assay: in vivo, Bromus tectorum. Particulars: Bromus tectorum, pre-emergence; for pest or weed control at 31 g/ha: 31 g ai/ha; for pest or weed control at 62 g/ha: 62 g ai/ha; for pest or weed control at 125 g/ha: 125 g ai/ha.
From the text: as §1, §2

The test system of the next assay is chamomile. Kind of assay: Test D preemergence. The settings on record: Tripleurospermum inodorum, pre-emergence; for pest or weed control at 31 g/ha: 31 g ai/ha; for pest or weed control at 62 g/ha: 62 g ai/ha; for pest or weed control at 125 g/ha: 125 g ai/ha. The class given is in vivo, Matricaria inodora.
From the text: as §1, §2

The next assay has as its system wild buckwheat. Kind of assay: Test D postemergence. The class given is in vivo, Polygonum convolvulus. Particulars: Fallopia convolvulus, post-emergence, Postemergence, scale 0 to 100 (0 no effect, 100 complete control), read-out: Plant response rating, Buckwheat, Wild; for pest or weed control at 31 g/ha: 31 g ai/ha; for pest or weed control at 62 g/ha: 62 g ai/ha; for pest or weed control at 125 g/ha: 125 g ai/ha.
From the text: as §1, §2

The mark [1] stands for this setting: scale 0-100, read-out: Plant response rating, Blackgrass.
The mark [2] stands for this setting: scale 0 to 100 (0 no effect, 100 complete control), read-out: Plant response rating, Galium.
The mark [3] stands for this setting: scale 0 to 100 (0 no effect, 100 complete control), read-out: Plant response rating, Canarygrass.
[4] abbreviates: scale 0-100, read-out: Plant response rating, Bromegrass, Downy.
Where [5] appears, read: scale 0-100, read-out: Plant response rating, Chamomile.

For the molecule `N#Cc1cccc(Oc2ncc(Cl)cn2)c1-n1cc(Br)cn1` [Compound 52, 2-(4-bromo-1H-pyrazol-1-yl)-3-[(5-chloro-2-pyrimidinyl)oxy]benzonitrile], the pest or weed control at 31 g/ha came to 5% with blackgrass (setting [1]); 70% in the assay on galium (setting [2]); 35% with canarygrass (setting [3]); 0% in the assay with bromegrass, downy (setting [4]); 15% in the assay with chamomile (setting [5]); 80% in the assay on wild buckwheat. The pest or weed control at 62 g/ha was determined as 5% in the assay on blackgrass (setting [1]); 80% in the assay with galium (setting [2]); 35% with canarygrass (setting [3]); 0% with bromegrass, downy (setting [4]); 65% with chamomile (setting [5]); 95% in the assay on wild buckwheat. For the same molecule, the pest or weed control at 125 g/ha with blackgrass (setting [1]) came to 30%; in the assay with galium (setting [2]) it was 95%; in the assay on canarygrass (setting [3]), 50%; with bromegrass, downy (setting [4]) it was 0%; in the assay on chamomile (setting [5]), 60%; with wild buckwheat it was 100%. For the same molecule, the pest or weed control at 250 g/ha with blackgrass (250 g ai/ha, scale 0-100, read-out: Plant response rating, Blackgrass) was 95%; in the assay on galium (250 g ai/ha, scale 0 to 100 (0 no effect, 100 complete control), read-out: Plant response rating, Galium), 100%; with canarygrass (250 g ai/ha, scale 0 to 100 (0 no effect, 100 complete control), read-out: Plant response rating, Canarygrass), 60%; in the assay on bromegrass, downy (250 g ai/ha, scale 0-100, read-out: Plant response rating, Bromegrass, Downy) it was 0%; in the assay with chamomile (250 g ai/ha, scale 0-100, read-out: Plant response rating, Chamomile), 80%; in the assay with wild buckwheat (250 g ai/ha), 100%.

Take `Fc1cccc(Oc2ncc(Cl)cn2)c1-n1cc(C(F)F)nn1` [Compound 141, 5-chloro-2-[2-[4-(difluoromethyl)-1H-1,2,3-triazol-1-yl]-3-fluorophenoxy]pyrimidine]: the pest or weed control at 16 g/ha in the assay with blackgrass (16 g ai/ha, scale 0 (no effect) to 100 (complete control), read-out: Plant response rating, Blackgrass) was 40%; in the assay with galium (16 g ai/ha, scale 0-100, read-out: Plant response rating, Galium), 95%; in the assay on canarygrass (16 g ai/ha, scale 0-100, read-out: Plant response rating, Canarygrass) it was 10%; in the assay on bromegrass, downy (16 g ai/ha, scale 0 (no effect) to 100 (complete control), read-out: Plant response rating, Bromegrass, Downy), 30%; in the assay on chamomile (16 g ai/ha, scale 0 (no effect) to 100 (complete control), read-out: Plant response rating, Chamomile), 90%; with wild buckwheat (16 g ai/ha), 100%. In addition, the pest or weed control at 31 g/ha was determined as 65% in the assay on blackgrass (setting [1]); 98% with galium (setting [2]); 25% with canarygrass (setting [3]); 45% with bromegrass, downy (setting [4]); 100% with chamomile (setting [5]); 100% in the assay with wild buckwheat. For the same molecule, the pest or weed control at 62 g/ha with blackgrass (setting [1]) was 90%; with galium (setting [2]) it was 98%; in the assay on canarygrass (setting [3]) it was 35%; in the assay on bromegrass, downy (setting [4]), 85%; in the assay on chamomile (setting [5]), 70%; in the assay on wild buckwheat it was 100%. Also, the pest or weed control at 125 g/ha in the assay on blackgrass (setting [1]) worked out at 95%; in the assay with galium (setting [2]), 98%; in the assay with canarygrass (setting [3]), 55%; in the assay on bromegrass, downy (setting [4]) it was 95%; in the assay on chamomile (setting [5]), 100%; in the assay with wild buckwheat, 100%.
